PubChem BioAssay (NCI)
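Cultured in 96-well plates, cells were exposed to test compound for 48 hours across five concentrations. GI50: concentration for 50% inhibition of growth. TGI denotes the concentration required for complete inhibition of growth.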

Assays:
Assay in all cases: NCI tumour cell line growth inhibition, 48 h
[1] = system: COLO 205 colon
[2] = system: OVCAR-3 ovarian
[3] = system: MOLT-4 leukemia
[4] = system: CAKI-1 renal
[5] = system: SF-539 CNS
[6] = system: UACC-62 melanoma
[7] = system: SF-295 CNS
[8] = system: SK-MEL-28 melanoma
[9] = system: M14 melanoma
[10] = system: OVCAR-5 ovarian
[11] = system: HCC-2998 colon
[12] = system: MDA-MB-231 breast
[13] = system: HS 578T breast
[14] = system: NCI-H226 lung
[15] = system: SNB-75 CNS
[16] = system: DU-145 prostate
[17] = system: CCRF-CEM leukemia
[18] = system: UO-31 renal
[19] = system: SK-OV-3 ovarian
[20] = system: NCI/ADR-RES ovarian
[21] = system: SK-MEL-5 melanoma
[22] = system: UACC-257 melanoma
[23] = system: MDA-MB-435
[24] = system: BT-549 breast
[25] = system: HL-60(TB) leukemia
[26] = system: TK-10 renal
[27] = system: ACHN renal
[28] = system: NCI-H522 lung
[29] = system: PC-3 prostate
[30] = system: SN12C renal
[31] = system: MCF7 breast
[32] = system: HOP-92 NSCLC
[33] = system: RPMI-8226 leukemia
[34] = system: EKVX NSCLC
[35] = system: A498 renal
[36] = system: KM12 colon

Work on `COc1cc(/C=C2\CN(S(=O)(=O)c3ccc(C)cc3)C/C(=C\c3cc(CN4CCCCC4)c(O)c(OC)c3)C2=O)cc(CN2CCCCC2)c1O` yielded a GI50 [1] of 1680 nM, a TGI [1] of 3580 nM and a GI50 [2] of 1850 nM. For the same molecule, the TGI [2] was 3590 nM, the GI50 [3] was 918 nM and the TGI [3] was 5040 nM. The GI50 [4] was 1730 nM, the TGI [4] was 3270 nM and the GI50 [5] was 1740 nM. The TGI [5] was 3310 nM, the GI50 [6] was 1630 nM and the TGI [6] was 3320 nM. For the same molecule, the GI50 [7] was 2260 nM, the TGI [7] was 5150 nM and the GI50 [8] was 1610 nM. The TGI [8] was 3130 nM, the GI50 [9] was 1610 nM and the TGI [9] was 3270 nM. For the same molecule, the GI50 [10] was 1880 nM, the TGI [10] was 3400 nM and the GI50 [11] was 1780 nM. For the same molecule, the TGI [11] was 3370 nM, the GI50 [12] was 1140 nM and the TGI [12] was 2770 nM. It also gave a GI50 [13] of 1920 nM, a TGI [13] of 4500 nM and a GI50 [14] of 1760 nM. The TGI [14] was 4290 nM, the GI50 [15] was 1640 nM and the TGI [15] was 3410 nM. The GI50 [16] was 1850 nM, the TGI [16] was 3530 nM and the GI50 [17] was 307 nM. For the same molecule, the TGI [17] was 1130 nM, the GI50 [18] was 1600 nM and the TGI [18] was 3030 nM. For the same molecule, the GI50 [19] was 1910 nM, the TGI [19] was 3600 nM and the GI50 [20] was 1220 nM. For the same molecule, the TGI [20] was 3770 nM, the GI50 [21] was 1810 nM and the TGI [21] was 3470 nM. It also gave a GI50 [22] of 1450 nM, a TGI [22] of 3020 nM and a GI50 [23] of 360 nM. The TGI [23] was 1390 nM, the GI50 [24] was 1380 nM and the TGI [24] was 2770 nM. It also gave a GI50 [25] of 1880 nM, a TGI [25] of 4340 nM and a GI50 [26] of 1980 nM. For the same molecule, the TGI [26] was 3630 nM, the GI50 [27] was 1440 nM and the TGI [27] was 2740 nM. The GI50 [28] was 306 nM, the TGI [28] was 1320 nM and the GI50 [29] was 1870 nM. It also gave a TGI [29] of 4750 nM, a GI50 [30] of 1770 nM and a TGI [30] of 3420 nM. It also gave a GI50 [31] of 375 nM, a TGI [31] of 2390 nM and a GI50 [32] of 1550 nM. It also gave a TGI [32] of 3190 nM, a GI50 [33] of 2030 nM and a TGI [33] of 5450 nM. It also gave a GI50 [34] of 1980 nM and a TGI [34] of 4580 nM.

`COc1ccc2[nH]cc(/C=C3/C(=O)Nc4ccc(Cl)cc43)c2c1` was tested, and the GI50 [3] was > 100000 nM, the TGI [3] was > 100000 nM and the GI50 [10] was > 100000 nM. The TGI [10] was > 100000 nM, the GI50 [17] was 5970 nM and the TGI [17] was > 100000 nM. For the same molecule, the GI50 [35] was > 100000 nM, the TGI [35] was > 100000 nM and the GI50 [25] was > 100000 nM. The TGI [25] was > 100000 nM, the GI50 [36] was 352 nM and the TGI [36] was > 100000 nM.
